Results on five compounds are retold here after patent publication US12721892B2, “Methods and compositions for chimeric antigen receptor targeting cancer cells” (The University of North Carolina at Chapel Hill, priority 2019, dated 2026).

“Also recorded” adds a separate entry of the source.

The nature of data set [1]: Humanized mouse CRS model of SHP1 heterodimerization. In kind it is in vivo, humanized NSG mice. The text has this: For the humanized mouse model to evaluate the effects of SHP1 heterodimerization in CAR-T cells in vivo, humanized NSG (NOD-scid IL2Rg^null) mice (NSG-hu HSC) were generated. Briefly, human fetal liver tissues were obtained from elective or medically indicated termination of pregnancy through a non-profit intermediary working with outpatient clinics (Advanced Bioscience Resources). CD34^+ hematopoietic stem cells (HSC) were transplanted in newborn NSG mice through intra-liver injection of 2×10^5 purified HSC. Human immune cell engraftment was detected by flow cytometry 12 weeks after transplantation. Standard parameters of evaluation of CRS in humanized NSG mice was performed. Mice were infused with 5×10^6 CAR-T cells at day 0, and plasma was collected at days 1 and 2. AP21967 was administrated intraperitoneally at 10 mg/kg dose. Weight of each mouse was normalized to starting weight before CAR-T cell infusion. In a second CRS murine model, 7-10-week-old female C.B-Igh-1b/GbmsTac-Prkdc^scid-Lyst^bgN7 (SCID-beige, Taconic Biosciences) mice were injected i.p. with Raji-FFluc cells. After 21 days, mice were grouped based on the BLI (total flux). Mice were infused i.p. with 30×10^6 CAR-T cells. Weight of each mouse was normalized to starting weight before CAR-T cell infusion.

Data set [2] concerns CAR-CD3ζ phosphorylation. In words: Western blot of CAR-CD3ζ and proximal signaling phosphorylation. In kind it is cell-based, human. On the procedure:
For western blot assays, protein lysate was normalized according to the amount of CAR expression and resolved on 4%-15% SDS polyacrylamide gel electrophoresis gels (SDS-PAGE, Bio-Rad). After protein transfer onto Polyvinylidene fluoride membranes (Bio-Rad), membranes were blocked in 5% non-fat milk in TBS-T and incubated with primary and secondary Abs in TBS-T with 1% milk. The following Abs were used: anti-CD3pY83 and anti-CD3pY142 (Abcam), anti-ZAP70pY319, anti-ZAP70, anti-LATpY191, anti-LAT, anti-LCK, anti-THEMIS, anti-SHP1 and anti-HA tag (Cell Signaling Technology), anti-CD3ζ, anti-FKBP, anti-β-actin (Santa Cruz), anti-FLAG (M2) (Sigma) and horseradish peroxidase conjugated secondary Abs (Goat-anti-mouse, Goat-anti-Rabbit from Thermo Scientific). Membranes were developed with SuperSignal West Femto Maximum Sensitivity Substrate (Thermo Scientific) on a Gel station (Bio-Rad).

The subject of data set [3] is CD19+ BV173 tumor cell line. In words: Co-culture / stimulation with CD19+ BV173 tumor cells. It is filed as cell-based, human. On the procedure: (§1) For activation of CD19-specific CAR-T cells with the anti-idiotype Ab or CD19^+ tumor cells, anti-CAR19 and anti-CD3 Abs were serially diluted 2-fold, and coated on non-tissue culture treated 96-well plates for 16 hours. Plates were washed twice before plating T cells (2.5×10^5 cells/well). Plates were centrifuged at 1,000 g for 5 min, and incubated at 37° C. for 6 hours. Plates were then briefly spun, and 200 μl of the supernatant was collected for ELISA. Cells were collected and stained with anti-CAR19, CD4-PE, CD69-FITC Abs and Zombie Aqua™ dye (Biolegend) at 4° C. for 30 min. Samples were fixed and stored for flow cytometry analysis. For tumor cell-mediated activation, 5×10^4 BV173 tumor cells were seeded in each well of 96-well plates, and T cells were serially diluted and seeded. Six hours later, supernatant was collected for ELISA.
(§2) Cytokines in culture supernatants and plasma were measured using enzyme-linked immunosorbent assay (ELISA) or magnetic luminex assay following manufacturer's instructions (R&D Systems). Data were collected and analyzed using the Lumina-200 System and the Bio-Plex Manager 6.1 software (Bio-Rad).
For co-culture assays, CD19^+ BV173 tumor cells were seeded into 24-well plates with 5×10^5 cells/well and T cells were added at different effector to target (E:T) ratios (E:T=1:1 or 1:5). After 24 hours, supernatant was collected for ELISA. Three days later, cells were collected and stained with anti-human CD3 and CD19 Abs for flow cytometry analysis.

Data set [4] deals with Daudi-FFLuc cells. In words: NSG xenograft lymphoma model of SHP1 heterodimerization. In kind it is in vivo, NSG mice. The method, then:
Animal studies were performed in accordance with the Institutional Animal Care and Use Committee of UNC. For long-term in vivo cytotoxicity, male or female NSG (NOD-scid IL2Rg^null) mice were injected intravenously (i.v.) with 2×10^6 CD19^+ Daudi tumor cell line labeled with the Firefly luciferase gene (Daudi-FFLuc). Four to seven days later, mice received T cells control or expressing CARs intravenously (i.v.). For tumor re-challenging experiments, 2×10^6 CD19^+ Daudi-FFLuc cells were i.v. injected at indicated time point. Tumor growth was monitored every 2-3 days by injecting mice intraperitoneally (i.p.) with D-luciferin (150 mg/kg, Xenolight, PerkinElmer). Photon emission was analyzed using the Xenogen-IVIS Imaging System. For short-term in vivo T cell activation, NSG mice were injected with Daudi-FFLuc cells i.v. Two weeks later, CAR19.28ζ-Ts were labeled with Cell-trace Violet (Thermo Scientific) and CAR19.BBζ-Ts were labeled with CFSE (Thermo Scientific) as per manufacturer's instructions. Cells were mixed 1:1, and a total 1×10^7 cells were i.v. injected in each mouse. Peripheral blood, bone marrow, lung and spleen were harvested 6 hours after T cell injection, dissociated into single cells and stained with anti-human CD45-PE, CD3-APC and CD69-PE-Cy7 Abs. […] Tumor growth was monitored twice a week.

Data set [5] relates to CD69 expression and cytokine release of CAR-T cells. In words: Activation of CAR-T cells with anti-CAR19 anti-idiotype Ab (CD69 expression, cytokine release). It is filed as cell-based, human. On the procedure: as §1, §2
Data set [6] concerns Ca2+ influx in CAR-T cells. In words: Ca2+ influx assay after anti-CAR19 Ab stimulation. In kind it is cell-based, human. The following applies: stimulated with α-CAR19 antibody; FIG. 6. On the procedure: For Ca^2+ influx assays, T cells were incubated with Ca^2+ indicator as per manufacturer's instructions (Ca^2+ influx assay, BD Bioscience). Cells were incubated with anti-CAR19 Ab followed by goat anti-mouse secondary Ab on ice. Ca^2+ current was measured by flow cytometry for time-lapsed fluorescence change. Cells were first collected on ice as the baseline of the Ca^2+ current, and then activated at 37° C. for the Ca^2+ current during T cell activation.

Where [7] appears, read: transient AP21967, FIGS. 21B-21C.

As to `CO[C@H]1[C@@H](O)[C@H](C)C[C@H](C)/C=C/C=C/C=C(\C)[C@@H](c2c[nH]c3c(C)cccc23)C[C@@H]2CC[C@@H](C)[C@@](O)(O2)C(=O)C(=O)N2CCCC[C@H]2C(=O)O[C@H]([C@H](C)C[C@@H]2CC[C@@H](O)[C@H](OC)C2)C[C@H](O)[C@H](C)/C=C(\C)[C@H]1O` [AP21967], the Weight loss result in data set [1] (AP21967 twice on day 1, 10 mg/kg intraperitoneally, FIG. 21A) is “alleviated their weight loss”. Moreover, in data set [1] (cell counts on day 21, FIG. 21D), the “Therapeutic effect of CAR19.28ζ-T cells in vivo” value is recorded as “did not impair the therapeutic effect”. Also, in data set [1] (setting [7]), the “Release in the plasma of human GM-CSF” value is “significantly reduced”, the “Release in the plasma of human IFNγ” value is “significantly reduced”, the “Release in the plasma of human IL-6” value is reported as “significantly reduced” and the “Release in the plasma of human TNFα” value is “significantly reduced”. Besides, the “CAR-CD3ζ phosphorylation upon antigen binding” value in data set [2] (CAR19.28ζ.FRB-T cells co-transduced with FKBP-SHP1, 1 μM AP21967, FIG. 16) is “tunes down CAR-CD3ζ phosphorylation upon antigen binding”. In addition, the “Antigen-independent CAR-CD3ζ phosphorylation of CAR19.28ζ-Ts” value in data set [2] (FKBP-SHP1 co-expressed, FIG. 16) is on record as “reduce antigen-independent CAR-CD3ζ phosphorylation”. For the same compound, in data set [3] (CAR19.28ζ-T cells with FKBP-SHP1, BV173 co-culture), the “Antitumor activity in vitro” value is listed as “without compromising their antitumor activity in vitro”. Also, the “IFNγ release / production” value in data set [3] (CAR19.28ζ.FRB-T cells with FKBP-SHP1 and BV173 at 1:5 ratio, FIGS. 17 and 18) was “reduces IFNγ release by CAR19.28ζ-T cells in a reversible manner; also recorded: reversible regulation of IFNγ production”. Also, the Cytotoxicity result in data set [3] (FKBP-SHP1 co-expressed, FIG. 17) was “controlled cytotoxicity”. For the same compound, in data set [4] (AP21967 twice on day 2, 10 mg/kg intraperitoneally, FIG. 20A), the “IFNγ release in vivo (plasma)” value is “reduced IFNγ release by CAR19.28ζ-T cells co-expressing SHP1”. Besides, in data set [4] (AP21967 twice on day 2, tumor growth days 7-39, FIG. 20B), the “Antitumor effects in vivo” value is “without impairing their antitumor effects”.
Consider `[Na+].[Na+].[Na+].[O]=[V]([O-])([O-])[O-]` [Na3 VO4], for which, in data set [2] (200 μM phosphatase inhibitor, FIG. 2E), the “Antigen-independent phosphorylation of CAR-CD3ζ in CAR19.BBζ-T cells” value is given as “promoted”.
In the case of `CC(C)(C)n1nc(-c2ccc(Cl)cc2)c2c(N)ncnc21` [PP2], in data set [2] (inhibitor at 10 μM for 16 hours, FIG. 2A), the “CAR-CD3ζ basal phosphorylation of CAR19.28ζ-T cells on addition of kinase inhibitor” value is on record as “abrogated”. The “Responsiveness of CAR19.28ζ-T cells to CAR crosslinking (CD69, IFNγ and IL-2) after PP2 pretreatment” value in data set [5] (10 μM PP2 for 16 hours, low doses of anti-CAR19 antibody, FIG. 2B) is recorded as “reduced their responsiveness to CAR crosslinking with low doses of anti-CAR19 antibody to similar levels of CAR19.BBζ-T cells”. In data set [5] (10 μM PP2 pretreatment, high doses of anti-CAR19 antibody), the “PP2-mediated inhibition in CAR19.28ζ-T cells at high doses of anti-CAR19 antibody” value is recorded as “partially overcame”.
For the compound CD8α-wt: wild type CD8α, the “Basal CAR-CD3ζ phosphorylation in CD4+ T cells co-expressing CAR.19.BK” value in data set [2] (co-expression of CD8α construct, FIG. 2D top) is given as “increased”.
Regarding “LCK: full-length human LCK, FLAG-tagged, overexpressed in CAR-T cells”, in data set [6], the “Ca2+ influx with LCK overexpression” value was “increasing; also recorded: correspondingly increased”. Moreover, in data set [2] (FIG. 5), the “CAR-CD3ζ phosphorylation in CAR19.28ζ-Ts with LCK overexpression” value was “enhanced”. Moreover, the “Basal CAR-CD3ζ phosphorylation in CAR19.BBζ-T cells with LCK overexpression” value in data set [2] (day 10 of in vitro expansion, three donors, FIG. 5) is listed as “increasing; also recorded: dramatically increased CAR-CD3ζ phosphorylation of CAR19.BBζ to a comparable level as CAR19.28ζ”.
